Reference: patent US20160339080A1, “METHODS AND PHARMACEUTICAL COMPOSITIONS FOR THE TREATMENT OF HEPATOCELLULAR CARCINOMAS” (INSERM (INSTITUT NATIONAL DE LA SANTÉ ET DE LA RECHERCHE …, priority 2014, published 2016)

Test system: SK-HEP-1 cells
Experiment: SK-HEP-1 cell growth (trypan blue-excluding adherent cells counted) and apoptosis
Assay type: cell-based, human
Conditions: NSC-87877 50 μM with 1 μM orexin-A, 48 h
Description: FIG. 1. […] SK-HEP-1 cells were challenged with (black) or without (white) 1 μM orexin-A for 48 h in the absence (wo) or presence of NSC-87877 (50 μM). At the end of the treatment, adherent cells were trypsinized, and cells excluding trypan blue were counted to measure SK-HEP-1 cell growth. Panel B : Effect of orexin-A inoculation on the growth of tumors developed by xenografting human HCC cancer cells SK-HEP-1 in nude mice. SK-HEP-1 cells were inoculated in the flank of nude mice at day 0. Mice were 2 times a week injected intraperitoneally with 100 μL of orexin-A (0,23 μmol/kg) solutions starting at day 0 (white circle) or day 22 (triangle) or with […] of PBS (black circle) for controls.
Orexins are hypothalamic peptides involved in sleep/wake control. We have shown that orexins promote robust apoptosis in colorectal cancer cells (Voisin T, El Firar A, Fasseu M, Rouyer-Fessard C, Descatoire V, Walker F, Paradis V, Bedossa P, Henin D, Lehy T, Laburthe M. (2011) Aberrant expression of OX1 receptors for orexins in colon cancers and liver metastases: an openable gate to apoptosis. Cancer Res. 71:3341-51.). […]

For O=S(=O)(O)c1ccc2cc(N=Nc3cc(S(=O)(=O)O)c4cccnc4c3O)ccc2c1 [NSC-87877], the “block of orexin-induced SK-HEP-1 growth inhibition” value was “blocks orexin-induced SK-HEP-1 growth inhibitory” and the “reversal of orexin-induced apoptosis” value was “reverse orexin-induced apoptosis”.
